One assay deals with T1, dihydrofolate reductase (Mus musculus, UniProt P00375).
T1 sequence (P00375 1-187): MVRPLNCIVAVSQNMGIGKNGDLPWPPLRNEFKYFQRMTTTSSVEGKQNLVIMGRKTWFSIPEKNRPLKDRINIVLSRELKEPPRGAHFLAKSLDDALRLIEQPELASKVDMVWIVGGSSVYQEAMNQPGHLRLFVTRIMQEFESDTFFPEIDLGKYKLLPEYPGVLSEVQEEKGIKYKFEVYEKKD
Put plainly: In vitro dihydrofolate reductase activity. The assay is classed as biochemical. Conditions: 0.25 to 1.0 mM. Here is the method: CF1 male mice (~30 g) were implanted with 2×10^6 Ehrlich ascites tumor cells, intraperitoneally on Day 0. Compound I was suspended by homogenation in 0.05% polysorbate.80-water and administered intraperitoneally at 10 and 20 mg/kg for 9 days to determine its effectiveness for inhibition of tumor growth. Mice were sacrificed on Day 10, and the ascites fluid was collected from the peritoneal cavity. The volume and ascrit (packed cell volume) were determined for each animal and the percent inhibition of tumor growth was calculated. For the metabolic studies, mice were treated on Days 8 and 9 with 10 mg/kg of Compound I, intraperitoneally. […]
Carbamyl phosphate synthetase activity was determined using the reaction medium of Kalman et al [Am. […] Citrulline formed from ornithine was measured at 490 nm by the method of Archibald [J. Biol. Chem., 156, 121 (1944)]. […] The ^14 CO2 generated in 15 min was trapped in 1M KOH and counted. Thymidylate synthetase activity was determined using a post-mitochondrial supernatant (9000 g×10 min) and 5 μCi of 5-^3 H-deoxyuridine monophosphate (14 Ci/mmol) according to the method of Kampf et al [ J. Med. Chem., 19, 903 (1976)]. ^14 C-Formate incorporation into purines was determined by the method of Spassova et al [Biochem. Pharmacol., 25, 923 (1976)] using 0.5 μCi of ^14 C-formic acid (52.0 mCi/mmol). […] The Rf value for xanthine monophosphate was scraped and counted. […]

In another assay the test system is Ehrlich ascites cells. Put plainly: Number of cells in ascites fluid. The assay is classed as in vivo, mouse. On the procedure: CF1 male mice (~30 g) were implanted with 2×10^6 Ehrlich ascites tumor cells, intraperitoneally on Day 0. Compound I was suspended by homogenation in 0.05% polysorbate.80-water and administered intraperitoneally at 10 and 20 mg/kg for 9 days to determine its effectiveness for inhibition of tumor growth. Mice were sacrificed on Day 10, and the ascites fluid was collected from the peritoneal cavity. The volume and ascrit (packed cell volume) were determined for each animal and the percent inhibition of tumor growth was calculated. For the metabolic studies, mice were treated on Days 8 and 9 with 10 mg/kg of Compound I, intraperitoneally. The animal was sacrificed on Day 10 and the ascites fluid harvested. The in vitro metabolic studies were performed at […] final concentration of Compound I.

For the next assay, the system named is CF1 male mice. Briefly: Mouse liver lipid content. Conditions: 16 days. The class given is in vivo. On the procedure:
In CF1 male mice that had been administered test drugs for 16 days, the liver, small intestine and fecal materials (24 hr collection) were removed and a 10% homogenate in 0.25M sucrose+0.001M (ethylenedinitrilo)tetraacetic acid was prepared. An aliquot (2 ml) of the homogenate was extracted by the methods of Floch et al [J. Biol. Chem., 226, 497 (1957)] and Bligh and Dyer [Can. J. Biochem. Physiol., 37, 911 (1957)] and the number of mg of lipid weighed. The lipid was taken up in methylene chloride and the cholesterol level triglyceride levels, neutral lipid content and phospholipid content were determined.
Data are expressed in the Table 2-7 as percent of control ± the standard deviation. The probable significant level (P) between each test group and the control group was determined by the Student's "t" test.

In the case of “{Cu[(CH3)3 N.BH2 CO2 ]2.(CH3)3 N.BH2 COOH} [Compound I]”, the dihydrofolate reductase inhibition result at dihydrofolate reductase is reported as “not inhibited”. In addition, in the assay with Ehrlich ascites cells (after drug administration for two days (control 226×10^6 /ml)), the “number of cells in the ascites fluid” value was 1.02e+08 mL⁻¹. Also, the “Number of cells × 10^6 /ml ascites fluid” value with Ehrlich ascites cells (in vivo, 10 mg/kg/day I.P. on Days 8 and 9) is 45 ± 4 % Control. In the assay with CF1 male mice (2.5 mg/kg), the Cholesterol is recorded as 71 ± 6% of control, the “Mg of Lipid” value was 82 ± 5% of control, the “Neutral Lipids” value is 79 ± 5% of control and the Phospholipids is recorded as 67 ± 6% of control. In addition, in the assay on CF1 male mice (2.5 mg/kg), the Protein is 105 ± 6% of control and the Triglycerides is reported as 40 ± 3% of control. For the same substance, in the assay with CF1 male mice (5.0 mg/kg), the Cholesterol is reported as 74 ± 7% of control, the “Mg of Lipid” value was 85 ± 6% of control, the “Neutral Lipids” value was 86 ± 5% of control and the Phospholipids is 92 ± 7% of control. Besides, in the assay with CF1 male mice (5.0 mg/kg), the Protein is listed as 92 ± 5% of control and the Triglycerides is on record as 38 ± 4% of control. In the assay with CF1 male mice (10.0 mg/kg), the Cholesterol is given as 77 ± 7% of control, the “Mg of Lipid” value is on record as 95 ± 6% of control, the “Neutral Lipids” value is listed as 87 ± 4% of control and the Phospholipids is reported as 152 ± 8% of control. Further, in the assay with CF1 male mice (10.0 mg/kg), the Protein is recorded as 101 ± 8% of control and the Triglycerides is recorded as 36 ± 5% of control.

The values are drawn from patent US4550186A, “Binuclear copper (II) carboxylates formed from amine-carboxyboranes” (Duke University, priority 1983, dated 1985).
